Data set [1] deals with Salmonella typhimurium UC6164. Description: standard mouse challenge test against Salmonella typhimurium UC6164 (survival, ED50). Format: in vivo. The settings on record: for ED50: mice, s.c., adjusted for drug potency, 95% confidence limits. The procedure: (§1) Each test compound was suspended or dissolved in sterile Vehicle 122 (0.025% carboxymethylcellulose in water) to a starting test concentration sufficient to provide in the first set of test animals a concentration of the test drug of 2 mg./kg. Portions of each such test drug formulation were diluted seriatim 50:50 v/v with water to reduce the concentration of the test drug in the test animal to 1 mg./kg., then to 0.5 mg./kg., to 0.25 mg./kg. and finally to 0.125 mg./kg. Sets of mice were injected with the test dilutions of the test drugs subcutaneously once or three times after injecting challenge doses lethal doses of one of the above-named bacterial organisms. The sets of animals were observed over six days to determine the number of surviving mice. The mortality ratios were noted and the ED50 values were calculated for each test drug by standard methods.

The next data set can be described thus: bulk density. Format: physicochemical.
The nature of data set [2]: dissolution rate in water. In kind it is physicochemical. The settings on record: for percent in aqueous solution in 20 minutes: ceftiofur hydrochloride unmicronized.
Data set [3] in a line: dispersibility in water, organic solvents and vegetable oils. The settings on record: in words. In kind it is physicochemical.
Data set [4] concerns Pasteurella multocida UC9581. Description: standard mouse challenge test against Pasteurella multocida UC9581 (survival, ED50). In kind it is in vivo. The settings on record: for ED50: mice, s.c., adjusted for drug potency, 95% confidence limits. The procedure:
as §1

Setting [5] is: mouse challenge, in words, from ED50 numbers of Table I.
Setting [6] is: zinc ceftiofur hydrochloride vs. non-complexed hydrochloride salt.
[7] abbreviates: 20 minutes, comparable equilibration conditions.

Where a name gives a salt, the structure may show the parent alone. Read-outs that look alike come from different tables or passages of the source.

On to `CO/N=C(\C(=O)N[C@@H]1C(=O)N2C(C(=O)O)=C(CSC(=O)c3ccco3)CS[C@H]12)c1csc(N)n1` [ceftiofur sodium], for which, in data set [1] (UC6164, 1000 LD50's, 1X treatment, 8640 min, listed as C--Na), the ED50 was 1.1 mg/kg/day. Also, in the data set “bulk density” (zinc ceftiofur sodium complex from water vs. ceftiofur sodium salt), the bulk density was determined as 0.11 g/mL. For the same molecule, the “solubility in water after 20 minutes” value in data set [2] (20 minutes, comparable equilibration conditions, zinc complex unmicronized) was 100%. For the same molecule, in data set [2] (in words, compared with sodium ceftiofur and ceftiofur hydrochloride), the “dissolution rate curves (percent dissolved over time)” value was “dissolves quite quickly in water”.
For the molecule “zinc ceftiofur hydrochloride complex [Compound II]”, the “dispersibility in water and in common pharmaceutical organic solvents and vegetable oils” value in data set [3] (granular powders) is given as “readily dispersible in water”. Further, the ED50 came to 1.0 mg/kg/day in data set [1] (UC6164, 579 LD50's, 1X treatment, 8640 min); 3.3 mg/kg/day in data set [1] (UC6164, 1000 LD50's, 1X treatment, 8640 min); 2.1 mg/kg/day in data set [1] (UC6164, 1000 LD50's, 3X treatments, 8640 min); 0.4 mg/kg/day in data set [4] (UC9581, 27 LD50's, 3X treatments, 8640 min); 0.3 mg/kg/day in data set [4] (UC9581, 303 LD50's, 1X treatment, 8640 min). Besides, the antibiotic protection entry in data set [1] (setting [5]) and in data set [4] (setting [5]) was “potent antibiotic protection” throughout. For the same molecule, the bulk density entry in the data set “bulk density” (setting [6]) is “about 0.24 g./ml”. For the same molecule, the “percent in aqueous solution in 20 minutes” value in data set [2] (setting [7]) came to 48%. Also, the rate of dissolution result in data set [2] (in words, compared to ceftiofur hydrochloride) was “much slower compared to ceftiofur hydrochloride”.
Take `CO/N=C(\C(=O)N[C@@H]1C(=O)N2C(C(=O)O)=C(CSC(=O)c3ccco3)CS[C@H]12)c1csc(N)n1` [ceftiofur hydrochloride]: the “distribution in pharmaceutical aqueous vehicle formulations” value in data set [3] was “less well adapted for distribution in pharmaceutical aqueous vehicle formulations”. Also, the ED50 in data set [1] (Salmonella enterica, sc, 144 h, UC6164, 579 LD50's, 1X treatment, read-out: ED50) amounted to 1.7 mg/kg; in data set [1] (Salmonella enterica, sc, 144 h, UC6164, 1000 LD50's, 1X treatment, read-out: ED50), 1.3 mg/kg; in data set [1] (Salmonella enterica, sc, 144 h, UC6164, 1000 LD50's, 3X treatments, read-out: ED50), 2.3 mg/kg; in data set [4] (Pasteurella multocida, sc, 144 h, UC9581, 27 LD50's, 3X treatments, read-out: ED50) it was 0.3 mg/kg. Further, the bulk density in the data set “bulk density” (setting [6]) worked out at 0.15 g/mL. The “percent in aqueous solution in 20 minutes” value in data set [2] (setting [7]) was 74%.

A word on the ED50: it is the dose that gives a 50% effect, or the effect in half of the subjects.

These data come from patent US4877782A, “Zinc ceftiofur complexes” (The Upjohn Company, priority 1988, dated 1989).
